Measured values taken from BindingDB's records for doi:10.1016/0960-894X(96)00376-9 (1996).
pKi: −log10 of the molar value.

Experiment: Binding affinity against human Alpha-1b adrenergic receptor

SMILES	pKi
O=C(c1nc(-c2c[nH]c3ccccc23)c[nH]1)c1c[nH]c2cc(O)ccc12	5.94
Brc1ccc2c(-c3c[nH]c(-c4c[nH]c5cc(Br)ccc45)n3)c[nH]c2c1 [Nortopsentin A]	6.28
Brc1ccc2c(-c3nc(-c4c[nH]c5ccccc45)c[nH]3)c[nH]c2c1 [Nortopsentin B]	6.89
Brc1ccc2c(-c3c[nH]c(-c4c[nH]c5ccccc45)n3)c[nH]c2c1 [Nortopsentin C]	6.77
O=C(c1nc(-c2c[nH]c3cc(Br)ccc23)c[nH]1)c1c[nH]c2cc(O)ccc12 [topsentin B2]	6.13
